Entries after “also recorded” stand apart in the source; their conditions may differ.

Data on ten compounds can be found in patent EP2574339A1, “Pharmaceutical preparation for treating NADH-related illnesses” (Huber, Johannes, priority 2011, dated 2013).

The test system of experiment [1] is 293mitoPARP Zellen. The experiment in a line: Cell viability (MTT assay) of 293mitoPARP cells. It counts as cell-based, menschlichen Zellen. The note with it: for Zell-Überleben: FK866 (2 µM), 100 µM metabolite, 72 h, Fig. 3A. On the technique in general: Tetrazolium assays rely on reduction of a dye to a coloured formazan, in cell work by metabolically active cells.
Description: (§1) Inhibitoren (2 µM FK866, 2 mM 3-AB, 10 µM NBTI, 2 µM Dipyridamol, 2 mM CMP, 25 µM PPADS, 1 mM Ap4A) oder Metaboliten (100 µM NAD^+, 100 µM NAAD, 100 µM NMN, 100 µM NAMN, 100 µM NA, 100 µM NR) wurden dem Zellkulturmedium zugesetzt, wie angegeben. […] Die Behandlung mit Inhibitoren und Metaboliten wurde für 24-48 h vor der Analyse von PAR Bildung und die Lebensfähigkeit der Zellen durchgeführt (72 h für 293mitoPARP Zellen, 96 h für HeLa S3-Zellen und 120 h für HepG2-Zellen). Die Lebensfähigkeit der Zellen wurde mittels MTT-Assay bestimmt.

Another experiment relates to HeLa S3-Zellen. The experiment in a line: Cell viability (MTT assay) of HeLa S3 cells. It counts as cell-based, menschlichen Zellen. The conditions noted are these: for Überleben: FK866 (2 µM), 100 µM metabolite, 96 h, Fig. 3B.
The subject of experiment [2] is 293mitoPARP Zellen. Nature of the experiment: Mitochondrial NAD+ content by PAR formation (mitoPARP) in 293mitoPARP cells. It counts as cell-based, menschlichen Zellen. The conditions noted are these: NamPRT inhibited by FK866 (2 µM), 100 µM metabolite in the medium, Fig. 3A. As to the method: Inhibitoren (2 µM FK866, 2 mM 3-AB, 10 µM NBTI, 2 µM Dipyridamol, 2 mM CMP, 25 µM PPADS, 1 mM Ap4A) oder Metaboliten (100 µM NAD^+, 100 µM NAAD, 100 µM NMN, 100 µM NAMN, 100 µM NA, 100 µM NR) wurden dem Zellkulturmedium zugesetzt, wie angegeben. NR wurde wie beschrieben bereitgestellt (Dölle et al., Anal. Biochem. 385 (2009), 377-379). Die Behandlung mit Inhibitoren und Metaboliten wurde für […] vor der Analyse von PAR Bildung und die Lebensfähigkeit der Zellen durchgeführt (72 h für 293mitoPARP Zellen, 96 h für HeLa S3-Zellen und 120 h für HepG2-Zellen). Die Lebensfähigkeit der Zellen wurde mittels MTT-Assay bestimmt.
Es wurden 293mitoPARP Zellen bereitgestellt, die ein Fusionsprotein exprimieren ("mitoPARP"), bestehend aus EGFP und PARP1cd (poly-ADP-Ribose-Polymerase-1), welches auf die mitochondriale Matrix abgezielt wurde. Mit mitochondrialem NAD^+ als Substrat generieren diese Zellen konstitutiv Protein-gebundenes PAR (Protein-gebundene poly-ADP-Ribose), welches immunchemisch visualisiert wird. Variationen im Umfang der erfassten PAR spiegeln damit Veränderungen des mitochondrialen NAD^+-Gehaltes wider. Ebenso wurde die transiente Expression von mitoPARP in HepG2 und HeLa S3 Zellen verwendet.
Ein PAR-Signal hängt sowohl von der katalytischen Aktivität von mitoPARP als auch von der Anwesenheit von NAD^+ ab. Folglich erlaubt die mitoPARP-Expression die Erkennung von Änderungen im mitochondrialen NAD^+-Gehalt.

A further experiment relates to HeLa S3 Zellen. The experiment in a line: Mitochondrial NAD+ content by PAR formation (transient mitoPARP) in HeLa S3 cells. The note with it: FK866 (2 µM), 100 µM metabolite, Fig. 3B. It counts as cell-based, menschlichen Zellen.
In experiment [3] the test system is menschlichen Zellen. The experiment in a line: Mitochondrial NAD+ generation / PAR formation from extracellular precursors with inhibitors, cell line not stated. It counts as cell-based. The conditions noted are these: for Funktion von NMN als extrazellulärer NAD^+-Vorläufer: NMN as precursor in presence of nucleoside transporter inhibitor (2 µM Dipyridamol, 10 µM NBTI); for NR-Nutzung: NR as precursor, nucleoside transporter inhibitor added.

Experiment [4] relates to menschlichen Zellen. Nature of the experiment: Cell viability (MTT assay) with extracellular precursors and inhibitors, cell line not stated. It counts as cell-based.
Where [5] appears, read: NMN as precursor, 2 mM CMP added.
Setting [6] is: NAD^+ as extracellular precursor, competitive NPP substrate added (1 mM Ap4A), effect similar to PPADS.
The mark [7] stands for this setting: NAD^+ as extracellular precursor, inhibitor added (25 µM PPADS), cell line not stated.
Where [8] appears, read: extracellular NR (100 µM), b59: in Gegenwart von CMP, Fig. 4B.

Description for HeLa S3-Zellen: as §1

For the compound `Nc1ccn([C@@H]2O[C@H](COP(=O)(O)O)[C@@H](O)[C@H]2O)c(=O)n1` [CMP], the Zellviabilität result with 293mitoPARP Zellen [1] (setting [5]) and in the experiment on HeLa S3-Zellen (setting [5]) was “verringert” throughout.
On to `NC(=O)c1ccc[n+]([C@@H]2O[C@H](COP(=O)([O-])O)[C@@H](O)[C@H]2O)c1` [NMN, Nikotinamid-Mononukleotid], for which, in the experiment with 293mitoPARP Zellen [2], the “mitochondrialer NAD^+-Gehalt (PAR)” value was “unterstützen; also recorded: wiederherstellen”. The “mitochondriale NAD^+-Bildung” value with HeLa S3 Zellen is on record as “unterstützen”. Also, in the experiment with 293mitoPARP Zellen [1], the Zell-Überleben result is reported as “schützen; also recorded: wiederherstellen”. For the same compound, the Überleben result with HeLa S3-Zellen was “schützen; also recorded: Restaurierung des Überlebens”.
Take `Nc1ncnc2c1ncn2[C@@H]1O[C@H](COP(=O)(O)OP(=O)(O)OP(=O)(O)OP(=O)(O)OC[C@H]2O[C@@H](n3cnc4c(N)ncnc43)[C@H](O)[C@@H]2O)[C@@H](O)[C@H]1O` [Ap4A, Diadenosintetraphosphat]: the “Lebensfähigkeit der Zellen” value in the experiment on 293mitoPARP Zellen [1] (setting [6]) and with HeLa S3-Zellen (setting [6]) was “ähnlichen Effekt” in each case.
For the compound `O=C(/C=C/c1cccnc1)NCCCCC1CCN(C(=O)c2ccccc2)CC1` [FK866], the “Nam Nutzung” value with menschlichen Zellen [3] (2 µM FK866, Fig. 3) is on record as “gehemmt”.
Turning to `O=C([O-])c1ccc[n+]([C@@H]2O[C@H](COP(=O)(O)O)[C@@H](O)[C@H]2O)c1` [NAMN, Nikotinsäure-Mononukleotid], the “mitochondrialer NAD^+-Gehalt (PAR)” value in the experiment on 293mitoPARP Zellen [2] is “unterstützen; also recorded: wiederherstellen”. Further, the “mitochondriale NAD^+-Bildung” value in the experiment on HeLa S3 Zellen is given as “unterstützen”. Also, the Zell-Überleben result in the experiment on 293mitoPARP Zellen [1] is “schützen; also recorded: wiederherstellen”. The Überleben result in the experiment with HeLa S3-Zellen was “schützen; also recorded: Restaurierung des Überlebens”. Also, in the experiment with menschlichen Zellen [3] (NAMN as precursor in presence of CMP, Dipyridamol, NBTI, Fig. 4A), the “mitochondriale NAD^+-Generierung von NAMN” value was “sensitiv gegenüber diesen Inhibitoren, wenn auch weniger stark”.
`O=[N+]([O-])c1ccc(CSc2ncnc3c2ncn3[C@@H]2O[C@H](CO)[C@@H](O)[C@H]2O)cc1` [NBTI]: the “Funktion von NMN als extrazellulärer NAD^+-Vorläufer” value with menschlichen Zellen [3] (Fig. 4A) is on record as “verlor NMN seine Funktion”. Moreover, the NR-Nutzung entry in the experiment on menschlichen Zellen [3] (Fig. 4B) is on record as “hemmen”.
`Cc1nc(N=Nc2ccc(S(=O)(=O)O)cc2S(=O)(=O)O)c(COP(=O)(O)O)c(C=O)c1O` [PPADS]: the “Wiederherstellung des mitochondrialen NAD^+-Pools” value with menschlichen Zellen [3] (setting [7]) is given as “verhindert”. For the same compound, in the experiment on menschlichen Zellen [4] (setting [7]), the “Überleben der Zelle” value was “verhindert”.
With `OCCN(CCO)c1nc(N2CCCCC2)c2nc(N(CCO)CCO)nc(N3CCCCC3)c2n1` [Dipyridamol], the “Funktion von NMN als extrazellulärer NAD^+-Vorläufer” value in the experiment on menschlichen Zellen [3] (Fig. 4A) is “verlor NMN seine Funktion”. Also, in the experiment on menschlichen Zellen [3] (Fig. 4B), the NR-Nutzung result is “hemmen”.
Regarding `O=C(O)c1cccnc1` [NA, Nikotinsäure], the “mitochondrialer NAD^+-Gehalt (PAR)” value with 293mitoPARP Zellen [2] is on record as “wiederherstellen”. For the same compound, the Zell-Überleben entry in the experiment on 293mitoPARP Zellen [1] is recorded as “wiederherstellen”. Further, in the experiment with HeLa S3-Zellen, the Überleben result was “Restaurierung des Überlebens”.
`NC(=O)c1ccc[n+]([C@@H]2O[C@H](CO)[C@@H](O)[C@H]2O)c1` [NR, 1-[3,4-Dihydroxy-5-(hydroxymethyl)oxolan-2-yl]pyridin-5-carboxamid]: the “mitochondriale PAR-Bildung / mitochondriale NAD^+-Generierung” value in the experiment on menschlichen Zellen [3] (setting [8]) is “unterstützt”. Further, the “Zelllebensfähigkeit / Zellviabilität” value in the experiment on menschlichen Zellen [4] (setting [8]) is given as “unterstützt”.
